We go through four compounds from patent US20030195161A1, “Composition comprising camptothecin or a camptothecin derivative and a topoisomerase II inhibitor for the treatment of cancer” (priority 2000, published 2003).

Where two headings read alike, the source gives them in different places. Marks after values point to notes of the source that are not given here.

The subject of one data set is P388/CPT. The experiment in a line: Percent increase in life span, camptothecin-resistant i.p. P388/CPT leukemia (Example 2). The format is in vivo, mice. The following applies: for Comment (chemosensitivity of P388/CPT): minimal activity = ILS greater than 26%; for % ILS: i.p. P388/CPT, highest non-toxic dose. Here is the method:
(§1) Cross-resistance between various agents was measured in murine leukemia cell lines. P388/CPT is a camptothecin-resistant leukemia that was established in vitro (Biochem. Pharmacol., 45: 339 (1993)) and maintained in vivo by i.p. passages in DBA2 female mice. The chemosensitivity of i.p. P388/CPT was evaluated with i.v. P388 sensitive reference drugs with different mechanisms of action. Antitumor efficacy was determined at the highest non-toxic dose as percent increase in life span (ILS), where:
(§2) ILS=100×[(median day of death (MDD) of treated mice)−(MDD control mice)][…]
(§3) A minimal level of activity equals an ILS of greater than 26%. P388/CPT was found resistant to camptothecin s.c. and CPT-11, but sensitive to both doxorubicin and etoposide. […] Table II tabulates the results from this study.

For another data set, the system named is P388. The format is in vivo, mice. The following applies: highest non-toxic dose. Here is the method: as §1, §2, §3
The subject of data set [1] is MA16/C, sc. The data set can be described thus: Dose response combination study, MA16/C sc (Example 5).
Description: (§6) The effectiveness of irinotecan combination chemotherapy methods was tested in a dose response study in a murine tumor model. Three arms were evaluated for tolerance and efficacy. Tolerance was measured by mortality, body weight loss at nadir, host recovery time, and combination toxicity index. Efficacy end points for solid tumor models were tumor growth delay (T/C), log10 cell kill (LCK, defined above), tumor regressions (i.e., complete remission (CR),or partial remission (PR)).
(§7) The LD10 for the single agent was obtained by plotting the toxicity of that agent and the dosage in mg/kg as a log probit graph. Subsequently, the CTI LD10 was obtained by plotting as a log probit graph the observed lethality and the corresponding CTI calculated as the sum of the fraction of the LD10 of each single agent.
The test system of data set [2] is Pancreatic Ductal Adenocarcinoma P03.
Description: In the first arm, three doses of CPT were given orally on days six through nine, twice a day. In the second arm, three doses of doxorubicin were given intravenously on days six and nine. In the combination third arm, five dosage levels of CPT-11 were administered orally on days six through nine, twice a day, with administration of five dosage levels of doxorubicin intravenously on days six and nine. This third arm illustrated an example of semi-simultaneous administration. In all three arms, the two daily administrations of CPT-11 were given four hours apart.
The test system of the next data set is P03, sc. The experiment in a line: Dose response combination study, P03 sc (Example 5). It counts as in vivo, murine. As for the experimental part:
Three arms were evaluated for tolerance and efficacy.

The next data set deals with C51. The following applies: C51 (BALB/c), days 5, 7, 9, 13, 15, twice daily; for LCK: at optimal total dose. As for the experimental part: (§4) This efficacy may be quantified, for example by the log10 cell kill, which is determined by the following formula: […]
(§5) in which T−C represents the time taken for the cells to grow, which is the mean time in days for the tumors of the treated group (T) to reach a predetermined value (1 g for example) and the tumors of the control group (C) to reach the same value, and Td represents the time in days needed for the volume of the tumors in the control group to double. […] A product is considered to be active if the log10 cell kill is greater than or equal to 0.7. A product is considered to be very active if the log10 cell kill is greater than 2.8.

For a further data set, the system named is MA16/C. The following applies: MA16/C (C3H/HeN); for Optimal Total Dose: days 5-9; for LCK: days 5-9, at optimal total dose. Here is the method: as §4, §5
The subject of a further data set is C26. The following applies: C26 (BALB/c); for LCK: at optimal total dose. Here is the method:
as §4, §5

A further data set has as its system P03. The following applies: P03 (B6D2F1), twice daily; for LCK: at optimal total dose. Here is the method: as §4, §5
The next data set concerns GOS. The following applies: GOS (B6D2F1); for LCK: at optimal total dose. As for the experimental part:
as §4, §5

The nature of data set [3]: Tolerance of oral and i.v. irinotecan in tumor bearing mice (Example 1). It counts as in vivo. The following applies: oral and intravenous.
Data set [4] relates to MA16/C, sc. The following applies: mouse, in vivo.
Description: as §6, §7
Where [5] appears, read: CPT-11 p.o. 38.8 mg/kg/adm, days 6-9 (twice/day).
Where [6] appears, read: CPT-11 p.o. 62.5 mg/kg/adm, days 6-9 (twice/day).
The mark [7] stands for this setting: CPT-11 p.o. 100.8 mg/kg/adm, days 6-9 (twice/day).
[8] abbreviates: Doxorubicin i.v. 3.8 mg/kg/adm, days 6, 9.
Setting [9] is: Doxorubicin i.v. 6.2 mg/kg/adm, days 6, 9.
Where [10] appears, read: Doxorubicin i.v. 10.0 mg/kg/adm, days 6, 9.

For `CC[C@@]1(O)C(=O)OCc2c1cc1n(c2=O)Cc2cc3ccccc3nc2-1` [CPT, camptothecin], in the data set on P388/CPT (agent s.c.), the “Comment (chemosensitivity of P388/CPT)” value is on record as “resistant” and the “% ILS” value came to 0%. The “% ILS” value in the data set on P388 (P388, agent s.c.) is recorded as 82%.

For `CCc1c2c(nc3ccc(OC(=O)N4CCC(N5CCCCC5)CC4)cc13)-c1cc3c(c(=O)n1C2)COC(=O)[C@]3(O)CC` [CPT-11, irinotecan], the LCK in the data set on MA16/C, sc [1] (CPT-11 p.o. single agent at HNTD 198.5 mg/kg, MA16/C sc, days 3-7) amounted to 2.0; in the data set with P03, sc (CPT-11 p.o. single agent at HNTD 806 mg/kg, days 6-9 twice daily), 1.3; in the data set on C51 (i.v.), 3.0; in the data set on C51 (oral) it was 2.5; in the data set with MA16/C (i.v.), 2.6; in the data set on MA16/C (oral), 2.7. For the same compound, the LCK in the data set on C26 (i.v., twice daily) is given as 0.7; in the data set on C26 (oral, days 3-7 twice daily), 0.9; in the data set on P03 (i.v.) it was 3.2†; in the data set with P03 (oral) it was 3.4†; with GOS (i.v., days 3, 5, 7 twice daily), 2.2; in the data set on GOS (oral, days 3-7, twice daily), 2.1. Moreover, the “HNTD Dose” value is 198.5 mg/kg in the data set on MA16/C, sc [1] (CPT-11 p.o. single agent, MA16/C sc, days 3-7) and 806 mg/kg in the data set on P03, sc (CPT-11 p.o. single agent, days 6-9 twice daily). Besides, the “Comment (chemosensitivity of P388/CPT)” value with P388/CPT (agent i.v.) was “resistant”. Also, the “% ILS” value with P388/CPT (agent i.v.) worked out at 0%; with P388 (P388, agent i.v.) it was 91%. The Comments entry is “Inactive” in data set [2] (setting [5]), “Active” in data set [2] (setting [6]) and “HDT active” in data set [2] (setting [7]). Further, the results for the Log10 cell kill in [2] (setting [5]), in data set [2] (setting [6]) and in data set [2] (setting [7]) were 0.5, 1.2 and 1.3, respectively. Besides, the T-C worked out at 4.0 days in data set [2] (setting [5]), 9.3 days in data set [2] (setting [6]) and 9.8 days in data set [2] (setting [7]). Besides, the results for the “Time for median tumor to reach 1000 mg” value in [2] (setting [5]), in [2] (setting [6]) and in data set [2] (setting [7]) were 20.4 days, 25.7 days and 26.2 days, respectively. Moreover, the “Optimal Total Dose” value turned out to be 615 mg/kg with C51 (i.v.); 845 mg/kg with C51 (oral); 130.5 mg/kg in the data set on MA16/C (i.v.); 230.5 mg/kg in the data set with MA16/C (oral); 228 mg/kg in the data set on C26 (i.v., twice daily); 558 mg/kg in the data set with C26 (oral, days 3-7 twice daily). Moreover, the “Optimal Total Dose” value in the data set on P03 (i.v.) stood at 346.2 mg/kg; in the data set with P03 (oral) it was 900 mg/kg; with GOS (i.v., days 3, 5, 7 twice daily), 346.2 mg/kg; with GOS (oral, days 3-7, twice daily) it was 900 mg/kg. For the same compound, the “tumor free survivor on day 120” value in the data set on P03 (i.v., 346.2 mg/kg total) is reported as “†1/5 tumor free survivor on day 120”; in the data set with P03 (oral, 900 mg/kg total), “†1/5 tumor free survivor on day 120”. In [3] (days post last administration), this compound had a nadir of 7 days. The compound also came in with a recovery in data set [3] (days post nadir (i.e., 12 days post first administration)) of 5 days. Besides, the body weight loss in data set [3] (similar tolerance) came to 8.5%.

Turning to `COc1cccc2c1C(=O)c1c(O)c3c(c(O)c1C2=O)C[C@@](O)(C(=O)CO)C[C@@H]3O[C@H]1C[C@H](N)[C@H](O)[C@H](C)O1` [doxorubicin], in the data set on P388/CPT (agent i.v.), the “Comment (chemosensitivity of P388/CPT)” value was “sensitive” and the “% ILS” value was determined as 180%. In [2] (setting [8]), the Comments result is reported as “Active”, the Log10 cell kill stood at 1.0, the T-C came out at 7.5 days and the “Time for median tumor to reach 1000 mg” value stood at 23.9 days. Moreover, in data set [2] (setting [9]), the Comments result was “Active”, the Log10 cell kill was determined as 1.2, the T-C worked out at 9.5 days and the “Time for median tumor to reach 1000 mg” value is given as 25.9 days. In data set [2] (setting [10]), the Comments result is “HDT highly active” and the tumor free survivors result is on record as “*There are no values presented because 4 out of 5 animals tested were tumor free survivors”. The tumor free survivors in the data set with P03, sc (doxorubicin i.v. single agent at HNTD 20.0 mg/kg, days 6, 9) is 4/5. Besides, the “HNTD Dose” value in the data set on P03, sc (doxorubicin i.v. single agent, days 6, 9) was found to be 20.0 mg/kg. The “% ILS” value in the data set with P388 (P388, agent i.v.) was determined as 122%.

Consider `COc1cc([C@@H]2c3cc4c(cc3[C@@H](O[C@@H]3O[C@@H]5CO[C@@H](C)O[C@H]5[C@H](O)[C@H]3O)[C@H]3COC(=O)[C@H]23)OCO4)cc(OC)c1O` [etoposide], for which the LCK in the data set on MA16/C, sc [1] (mouse, in vivo) worked out at 2.2. Moreover, in the data set on P388/CPT (agent i.v.), the “Comment (chemosensitivity of P388/CPT)” value is listed as “sensitive” and the “% ILS” value stood at 121%. For the same compound, in the data set with MA16/C, sc [4], the “HNTD Dose” value stood at 90.0 mg/kg. The “% ILS” value in the data set with P388 (P388, agent i.v.) is reported as 127%.
